Results: the METLIN SMRT retention time set (Domingo-Almenara et al. 2019)

Test: gradient 5% acetonitrile 3 min, to 50% in 2 min, to 85% in 15 min, held 3 min, 100 µL/min
Settings: column: Zorbax Extend-C18 2.1 x 50 mm; eluents: water / acetonitrile, 0.1% formic acid
Summary of the method: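 Each retention time is based on an adduct peak selected computationally and verified by manual inspection. Measurements used HPLC–quadrupole time-of-flight mass spectrometry in positive and negative ionization mode on mixtures of ~100 pure standards. Chromatography ran on a Zorbax Extend-C18 column (2.1 × 50 mm, 1.8 μm) at 100 μL/min with water and acetonitrile, each containing 0.1% formic acid, and dead and dwell volumes of 40 μL and 900 μL.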

Row | SMILES | RP-LC retention time
1 | O=C(Cc1cccc(F)c1)N1CCC(n2cnnc2-c2ccccc2)C1 (stereo not drawn) | 686 s
2 | Cc1ccc([C@@H]2O[C@H](CO)[C@@H](O)[C@H](O)[C@H]2O)cc1Cc1ccc(-c2ccc(F)cc2)s1 | 847 s
3 | Cc1cc(C)n(-c2ccc(C(=O)NC3CCC(C)CC3)cn2)n1 (stereo not drawn) | 1010 s
4 | Cn1c(SCC(N)=O)nnc1-c1sc2cc(Cl)ccc2c1Cl | 702 s
5 | O=C(NCCSC12CC3CC(CC(C3)C1)C2)c1ccc(CN2C(=O)CCn3nccc32)cc1 | 645 s
6 | CNc1nc(N(C)C)nc(N(C)C)n1 | 602 s
7 | COc1ccc2c(c1)C1(CCN(C(=O)c3cccs3)C1)C(=O)N2C (stereo not drawn) | 738 s
8 | CCc1nc(NC(=O)Cn2nc3c(cc2=O)CCCC3)sc1C | 764 s
9 | COCCC1(NC(=O)C2CCOCC2)CCN(C(=O)C2CC=CC2)CC1 | 632 s
10 | Cc1nn(CC(=O)N2CCOCC2)c(=O)c2c(-n3cccc3)n(-c3cccc(F)c3)nc12 | 733 s
11 | CCc1cc(N2CCN(C(=O)c3ccc(Br)cc3)CC2)nc2nnc(C)n12 | 640 s
12 | CCC(C)(C)NC(=O)Cn1ncc2c(N3CCN(c4ccccn4)CC3)ncnc21 | 587 s
13 | CC1CCN(S(=O)(=O)c2cc(-c3nnc(C(C)C)o3)co2)CC1 | 964 s
14 | COc1ccc(CCc2nc3nccc(-c4cccnc4)n3n2)cc1 | 720 s
15 | CC(C)NC(=O)c1ccc2c(c1)CC(=O)N2C | 616 s
16 | O=C(CCCOc1ccc(Cl)cc1Cl)Nc1nc(-c2ccccc2)cs1 | 1210 s
17 | Cc1sc2nc(SCC(=O)Nc3sc4c(c3C#N)CCCC4)n(C)c(=O)c2c1C | 1080 s
18 | O=S(=O)(c1ccccc1F)N1CC(F)(F)C[C@H]1CN1CCc2ccccc2C1 | 738 s
19 | CN1CCN(C(=O)c2cc(-c3cccs3)n(CC(=O)NCc3ccco3)n2)CC1 | 572 s
20 | COC(=O)CNC(=O)N1CCN(c2nc3ccccc3n2Cc2ccccc2)CC1 | 644 s
21 | O=C(COc1ccccc1Cl)NCCCn1nc(-c2ccc(F)cc2)ccc1=O | 807 s
22 | O=C(NCC1CCCO1)C1CCN(C(=O)C2Sc3ccccc3NC2=O)CC1 (stereo not drawn) | 642 s
23 | CC1Cc2ccccc2N1C(=O)c1ccc(=O)n(CCC(=O)N2CCCCCC2)n1 (stereo not drawn) | 814 s
24 | O=C(NC1CCCCC1)N1CCCC1c1nc(-c2cccc(F)c2)no1 (stereo not drawn) | 984 s
25 | N#CCN(c1ccc2c(c1)OCO2)S(=O)(=O)c1ccc2nncn2c1 | 692 s
26 | Cc1cc(Cl)ccc1OCc1nc(-c2cccc(-c3ccn[nH]3)c2)no1 | 1090 s
27 | COc1cc(-c2noc(CN3C(=O)COc4ccc(C)cc43)n2)cc(OC)c1OC | 985 s
28 | CCc1nnc([C@@H]2CC(F)(F)CN2C(=O)c2ccc3nc[nH]c3c2)o1 | 540 s

Row | SMILES | RP-LC retention time
29 | CCOc1ccc(N2C=C(C#N)S(=O)(=O)c3ccccc32)cc1 | 943 s
30 | CCC(CC)CN1CCC(n2c(C)cnc2-c2ccccc2)C1 (stereo not drawn) | 559 s
31 | O=C(Cn1nc2n(c1=O)CCCCC2)NCc1ccc(F)cc1 | 671 s
32 | CCCNc1cc(N2CCC(CCC(=O)Nc3ccc(OC)c(OC)c3)CC2)ncn1 | 648 s
33 | CC(C)S(=O)(=O)N1CC(c2nc(CCOCc3ccccc3)no2)C1 | 914 s
34 | O=[N+]([O-])c1cccc(CSc2ccc3nnc(-c4cccs4)n3n2)c1 | 789 s
35 | CCC1CCCCN1S(=O)(=O)c1cc(-c2nnc(C)o2)co1 (stereo not drawn) | 857 s
36 | CCCn1ccc2sc(C)c(C(=O)N3CCOCC3)c2c1=O | 646 s
37 | CCn1ccc(C(=O)N2CCN(c3cc(-c4ccccc4)[nH]n3)CC2)n1 | 689 s
38 | Cn1cccc1C(=O)C(=O)N1CCN(c2ccc(Cl)cc2)CC1 | 904 s
39 | O=C(NCc1csc(C2CCN(C(=O)c3ccc(F)cc3F)CC2)n1)C1CCC1 | 729 s
40 | O=C(Cn1cccc1-c1nnc(-c2ccccc2)o1)N1CCC2(CC1)OCCO2 | 834 s
41 | O=C(NCc1ccc2c(c1)OCO2)C1CCN(CCc2c[nH]c3ncccc23)CC1 | 577 s
42 | COc1cccc(-c2nc3nc(C)c(CCC(=O)NC4CCCCC4)c(C)n3n2)c1 | 827 s
43 | O=C(Cc1cccs1)Nc1c(C(=O)N2CCN(c3ccccn3)CC2)oc2ccccc12 | 675 s
44 | Cn1ncc2c3ccccc3n(CC(=O)N3CCN(C4CCCCC4)CC3)c2c1=O | 622 s
45 | O=C(NCc1csc(C2CCN(C(=O)Cc3ccc(Cl)cc3)CC2)n1)C1CCC1 | 784 s
46 | O=C(NC1CCCCC1)C1CCN(C(=O)C2Sc3ccccc3NC2=O)CC1 (stereo not drawn) | 732 s
47 | COCCc1noc(C2CN(S(=O)(=O)c3ccc(C#N)cc3)C2)n1 | 768 s
48 | Cc1cccc(CN2CCn3c(nnc3[C@@H]3C[C@@H](O)CN3Cc3cccnc3)C2)c1 | 586 s
49 | O=C(CCCc1ccccc1)N1CCN(c2ccc(-n3cccn3)nn2)CC1 | 758 s
50 | CCCOc1ccc(-c2nc(-c3ccc(N)cc3)cs2)cc1 | 1120 s
51 | O=C(NC1CC1)C1CCN(C(=O)c2cc(-c3ccncc3)n[nH]2)CC1 | 546 s
52 | COc1cc(NC(=O)CC2=C3CCCCC3NC2=O)cc(OC)c1 (stereo not drawn) | 706 s
53 | COCCNC(=O)c1csc(N2CCN(c3cccc(OC)c3)CC2)n1 | 855 s
54 | COc1ccc(Cl)cc1NC(=O)CCc1c(C)nn(-c2cc(N(C)C)ncn2)c1C | 940 s
55 | Cc1cc2c(cc1S(=O)(=O)N1CCCC1C(=O)N1CCN(c3ccccc3)CC1)OC(C)C(=O)N2 (stereo not drawn) | 814 s

Further lines, results first:

Row | RP-LC retention time | SMILES
56 | 992 s | COc1ccc(NC(=O)c2nnc(CCCC(=O)NCCc3c[nH]c4ccc(C)cc34)s2)cc1
57 | 793 s | O=C(O)c1ccc2c(c1)n(Cc1ccc(F)cc1)c(=O)c1ccnn12
58 | 692 s | Cc1ccccc1Cc1nc(-c2ccc3c(c2)nnn3CCN2CCOCC2)no1
59 | 920 s | Cc1cccc(NC(=O)C2C(=O)NC3(C)CC2c2ccccc2O3)c1 (stereo not drawn)
60 | 646 s | O=C(Cn1c(=O)cnc2cc(C(=O)NC3CC3)ccc21)Nc1ccccc1C(F)(F)F
61 | 822 s | COc1ccc(Cc2nc(-c3ccc4nnc(C)n4c3)no2)cc1Cl
62 | 838 s | COC(=O)C1=CN(c2cccc(F)c2)c2ccc(F)cc2S1(=O)=O
63 | 675 s | CC1CCCCN1CCNC(=O)c1c2c(cn(-c3ccc(F)cc3)c1=O)C(=O)CC(C)(C)C2 (stereo not drawn)
64 | 727 s | CC(C)n1c(=O)c(NCCc2ccc(Cl)cc2)nc2ccncc21
65 | 622 s | CCN1CCN(Cc2ccc(NC3=NS(=O)(=O)C(c4ccc(OC)cc4)=C3C)cc2)CC1
66 | 680 s | O=C(Nc1cccc(N2CCCCC2=O)c1)c1ccc(Br)o1
67 | 896 s | O=C(Cn1nc2c(N3CCc4ccccc4C3)nccn2c1=O)Nc1ccccc1Cl
68 | 623 s | CC(C)n1cnc2cc(CNC(=O)c3ccc(F)cc3F)ccc21
69 | 742 s | Cc1cccc(CNC(=O)c2ccc3c(c2)CC(=O)N3C)c1
70 | 937 s | CC(=O)N1CCCSc2ccc(S(=O)(=O)N(C)c3ccc(C)cc3)cc21
71 | 687 s | COc1cccc(NC(=O)Cn2c(C(C)C)nc3c(c2=O)CN(Cc2ccccc2)CC3)c1
72 | 790 s | CCOc1ccc(C(=O)N2CCC3(CC2)NC(=O)c2cccc(Cl)c2N3)cc1

Row | RP-LC retention time | SMILES
73 | 621 s | Cc1ccccc1CNC(=O)c1c(C)oc2c1C1=NCCN1C=N2
74 | 794 s | CCc1noc(NC(C)=O)c1-c1ccc(OC)c(S(=O)(=O)Nc2ccc(F)cc2F)c1
75 | 1100 s | CC(C)c1noc(-c2cc(=O)n(CC(=O)Nc3ccc(Cl)cc3F)c3ccccc23)n1
76 | 749 s | Cc1ccc(NC(=O)C2CC(=O)N(c3ccc4oc(C)nc4c3)C2)cc1 (stereo not drawn)
77 | 910 s | Cc1ccc(S(=O)(=O)N2CCC(n3c(-c4ccoc4)nc4cccnc43)C2)cc1F (stereo not drawn)
78 | 845 s | Cc1ccc(-c2nnc(Cc3nc(-c4cccnc4)no3)o2)cc1C
79 | 843 s | Cc1ccc(NC(=O)C2CC(=O)N(CCc3c[nH]c4ccc(C)cc34)C2)cc1 (stereo not drawn)
80 | 1260 s | Cc1ccc(-c2ccc(-n3nc(C)c(S(=O)(=O)N4CCC(C)CC4)c3C)nn2)cc1
81 | 1210 s | CCc1nc(-c2csc(S(=O)(=O)N3CCCC(C(=O)Nc4c(C)cc(C)cc4C)C3)c2)no1 (stereo not drawn)
82 | 876 s | Cc1cc(-n2c(C)nc3ccccc3c2=O)ccc1NC(=O)C(C)Oc1ccccc1 (stereo not drawn)
83 | 659 s | Cc1ncoc1C(=O)N1CCOc2ccc(NC(=O)C3CC3)cc2C1
84 | 982 s | Cc1nc2nc(-c3ccc(C(C)(C)C)cc3)nn2c(C)c1CC(=O)N(CCO)Cc1ccccc1
85 | 1150 s | CCOc1ccc(C2Cn3nnc(-c4nc(-c5ccccc5Cl)no4)c3CO2)cc1 (stereo not drawn)
86 | 1230 s | Cc1ccc(C)c(N2CCN(c3ccnc(SCC(=O)Nc4cccc(Cl)c4F)n3)CC2)c1
87 | 719 s | Cc1ccc(Nc2c(-c3ccc(O)cc3)nc3ncccn23)c(C)c1
88 | 1050 s | CCOC(=O)COc1ccccc1C1CC(c2ccc(Br)cc2)=NN1C(C)=O (stereo not drawn)
